According to patent US10077284B2, “UBA5 inhibitors” (THE GOVERNING COUNCIL OF THE UNIVERSITY OF TORONTO, priority 2014, dated 2018):
Read-outs that look alike come from different tables or passages of the source. Blank lines part the entries; values can stand above or below the molecule they belong to.

Biological target: T1, GST-UBA5 (Homo sapiens, UniProt Q9GZZ9)
T1 construct: made in house
Experiment: UBA5 transthiolation assay (UFC1-UFM1 conjugate formation)
Assay type: biochemical
Conditions: for inhibition at 0.1 µM: [Ligand] 0.1 μM; for inhibition at 0.1 µM / inhibition at 1 µM / inhibition at 5 µM / inhibition at 10 µM / inhibition at 50 µM / inhibition at 100 µM: n = 1; for inhibition at 1 µM: [Ligand] 1 μM; for inhibition at 5 µM: [Ligand] 5 μM; for inhibition at 10 µM: [Ligand] 10 μM; for inhibition at 50 µM: [Ligand] 50 μM; for inhibition at 100 µM: [Ligand] 100 μM; for IC50: read-out: IC50

[1] = Table 1, transthiolation enzymatic assay
[2] = Table 3, n = 3, tested 0.1-100 μM

T1 sequence (Q9GZZ9 whole entry): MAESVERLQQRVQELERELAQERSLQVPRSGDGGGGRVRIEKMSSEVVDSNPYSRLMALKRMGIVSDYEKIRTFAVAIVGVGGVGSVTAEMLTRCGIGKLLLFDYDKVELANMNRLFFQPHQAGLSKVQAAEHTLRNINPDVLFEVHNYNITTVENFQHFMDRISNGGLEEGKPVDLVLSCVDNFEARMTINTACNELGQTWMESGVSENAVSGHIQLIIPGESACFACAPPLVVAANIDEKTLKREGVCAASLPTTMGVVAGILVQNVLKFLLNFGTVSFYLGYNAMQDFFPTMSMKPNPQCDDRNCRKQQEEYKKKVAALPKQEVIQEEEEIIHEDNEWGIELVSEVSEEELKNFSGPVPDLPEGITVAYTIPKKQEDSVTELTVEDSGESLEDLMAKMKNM
Method: Initial rates were recorded over 30 second time intervals from 0 to 2.5 min (normal kinetics) or 0 to 5 min (inhibition kinetics). Reactions were initiated by the addition of ATP and stopped using 4× Laemmli sample buffer (BioRad). The generated protein conjugates were separated on a 10% non-degenerating SDS-polyacrylamide gel (4-15% gels were used for the UAE transthiolaton assay), followed by Western blot analysis, with the exception of GST-UBA5 where protein bands were detected using Coomassie™ Brilliant Blue R-250 staining or Stain-Free gel imaging for the enzymatic assays (Bio-Rad). Transfers for the UAE and NAE immunoblots were performed using nitrocellulose membranes and blocking and blotting was performed as described above with cellular protein extracts. The His6-tagged Ub-UBCH6 complex was detected using an anti-His mouse monoclonal primary antibody (1:500, abcam). A rabbit anti-NEDD8 polyclonal primary antibody (1:500, BostonBiochem) was used for the detection of the E2-NEDD8 complexes. […] Inhibitory data was fit to a dose-response curve (Y=Bottom+(Top−Bottom)/(1+10^(X-Log IC50))) using GraphPad Prism 6.

- inhibition at 0.1 µM: 0%
- inhibition at 1 µM: 25%
- inhibition at 5 µM: 41%
- inhibition at 10 µM: 31%
- inhibition at 50 µM: 4%
- inhibition at 100 µM: 26%
Molecule: Nc1ncnc2c1ncn2[C@@H]1O[C@H](C(=O)NCC(=O)N2CCNCCNCCNCC2)[C@@H](O)[C@H]1O [Compound 1.1, (2S,3S,4R,5R)-5-(6-amino-9H-purin-9-yl)-3,4-dihydroxy-N-(2-oxo-2-(1,4,7,10-tetraazacyclododecan-1-yl)ethyl)tetrahydrofuran-2-carboxamide]

- IC50 (Table 5, n = 3): 20 µM
Molecule: Nc1ncnc2c1ncn2[C@@H]1O[C@H](C(=O)NCCN2CCCNCCNCCCNCC2)[C@@H](O)[C@H]1O.[Zn+2] [Compound 1.1.A.Cy.Zn, (2S,3S,4R,5R)—N-(2-(1,4,8,11-tetraazacyclotetradecan-1-yl)ethyl)-5-(6-amino-9H-purin-9-yl)-3,4-dihydroxytetrahydrofuran-2-carboxamide, zinc(II) trifluoromethanesulfonate]

- IC50 (Table 5, n = 3): 7.61 µM
Molecule: Nc1ncnc2c1ncn2[C@@H]1O[C@H](C(=O)NCCN2CCNCCNCCNCC2)[C@@H](O)[C@H]1O.[Zn+2] [Compound 1.1.A.Zn, (2S,3S,4R,5R)—N-(2-(1,4,7,10-tetraazacyclododecan-1-yl)ethyl)-5-(6-amino-9H-purin-9-yl)-3,4-dihydroxytetrahydrofuran-2-carboxamide, zinc(II) trifluoromethanesulfonate]

- IC50 (Table 4, n = 3): 4.24 µM
Molecule: Nc1ncnc2c1ncn2[C@@H]1O[C@H](C(=O)NCC(=O)N2CCCNCCNCCCNCC2)[C@@H](O)[C@H]1O.[Zn+2] [Compound 1.1.Cy.Zn, (2S,3S,4R,5R)-5-(6-amino-9H-purin-9-yl)-3,4-dihydroxy-N-(2-oxo-2-(1,4,8,11-tetraazacyclotetradecan-1-yl)ethyl)tetrahydrofuran-2-carboxamide, zinc(II) trifluromethanesulfonate]

- IC50 [1]: 8.9 µM
Molecule: Nc1ncnc2c1ncn2[C@@H]1O[C@H](C(=O)NCCC(=O)N2CCNCCNCCNCC2)[C@@H](O)[C@H]1O.[Zn+2] [Compound 1.2.Zn, (2S,3S,4R,5R)-5-(6-amino-9H-purin-9-yl)-3,4-dihydroxy-N-(3-oxo-3-(1,4,7,10-tetraazacyclododecan-1-yl)propyl)tetrahydrofuran-2-carboxamide zinc (II) trifluoromethanesulfonate]

- inhibition at 0.1 µM: 24%
- inhibition at 1 µM: 10%
- inhibition at 5 µM: 17%
- inhibition at 10 µM: 28%
- inhibition at 50 µM: 11%
- inhibition at 100 µM: 0%
Molecule: Nc1ncnc2c1ncn2[C@@H]1O[C@H](C(=O)NCCCC(=O)N2CCNCCNCCNCC2)[C@@H](O)[C@H]1O [Compound 1.3, (2S,3S,4R,5R)-5-(6-amino-9H-purin-9-yl)-3,4-dihydroxy-N-(4-oxo-4-(1,4,7,10-tetraazacyclododecan-1-yl)butyl)tetrahydrofuran-2-carboxamide]

- IC50 [1]: 23.3 µM
Molecule: Nc1ncnc2c1ncn2[C@@H]1O[C@H](C(=O)NCCCC(=O)N2CCNCCNCCNCC2)[C@@H](O)[C@H]1O.[Zn+2] [Compound 1.3.Zn, (2S,3S,4R,5R)-5-(6-amino-9H-purin-9-yl)-3,4-dihydroxy-N-(4-oxo-4-(1,4,7,10-tetraazacyclododecan-1-yl)butyl)tetrahydrofuran-2-carboxamide zinc (II) trifluoromethanesulfonate]

- IC50 [1]: 5.2 µM
Molecule: Nc1ncnc2c1ncn2[C@@H]1O[C@H](C(=O)NCCCCC(=O)N2CCNCCNCCNCC2)[C@@H](O)[C@H]1O.[Zn+2] [Compound 1.4.Zn, (2S,3S,4R,5R)-5-(6-amino-9H-purin-9-yl)-3,4-dihydroxy-N-(5-oxo-5-(1,4,7,10-tetraazacyclododecan-1-yl)pentyl)tetrahydrofuran-2-carboxamide zinc (II) trifluoromethanesulfonate]

- IC50 (Table 5, n = 3): 38.2 µM
Molecule: Nc1ncnc2c1ncn2[C@@H]1O[C@H](C(=O)NCCCCCCN2CCNCCNCCNCC2)[C@@H](O)[C@H]1O.[Zn+2] [Compound 1.5.A.Zn, (2S,3S,4R,5R)—N-(6-(1,4,7,10-tetraazacyclododecan-1-yl)hexyl)-5-(6-amino-9H-purin-9-yl)-3,4-dihydroxytetrahydrofuran-2-carboxamide, zinc(II) trifluromethanesulfonate]

- IC50 (Table 6, n = 3): 13.6 µM
Molecule: O=C(NCCCCCC(=O)N1CCNCCNCCNCC1)[C@H]1O[C@@H](n2cnc3c(N[C@H]4CCc5ccccc54)ncnc32)[C@H](O)[C@@H]1O.[Zn+2] [Compound 1.5.An6.Zn, (2S,3S,4R,5R)-5-(6-(((S)-2,3-dihydro-1H-inden-1-yl)amino)-9H-purin-9-yl)-3,4-dihydroxy-N-(6-oxo-6-(1,4,7,10-tetraazacyclododecan-1-yl)hexyl)tetrahydrofuran-2-carboxamide, zinc(II) trifluoromethanesulfate]

Molecule: Nc1ncnc2c1ncn2[C@@H]1O[C@H](C(=O)NCCCCCC(=O)N2CCNCCNCCNCC2)[C@@H](O)[C@H]1O.O=S(=O)([O-])C(F)(F)F.O=S(=O)([O-])C(F)(F)F.[Cu+2] [Compound 1.5.Cu, (2S,3S,4R,5R)—N-(6-(1,4,7,10-tetraazacyclododecan-1-yl)-6-oxohexyl)-5-(6-amino-9H-purin-9-yl)-3,4-dihydroxytetrahydrofuran-2-carboxamide copper (II) trifluoromethanesulfonate]
- IC50 [2]: > 100 µM

Molecule: C1CNCCNCCNCCN1.[Zn+2] [zinc(II) cyclen complex, reference compound]
- effect on the transthiolation reaction (at 100 μM): able to impede the transthiolation reaction

Molecule: (2S,3S,4R,5R)-5-(6-(((S)-2,3-dihydro-1H-inden-1-yl)amino)-9H-purin-9-yl)-3,4-dihydroxy-N-(6-oxo-6-(1,4,7,10-tetraazacyclododecan-1-yl)hexyl)tetrahydrofuran-2-carboxamide, copper(II) trifluoromethanesulfonate [Compound 1.5.An6.Cu]
- IC50 (Table 6, n = 3): 12.5 µM

Molecule: (2S,3S,4R,5R)-5-(6-amino-9H-purin-9-yl)-3,4-dihydroxy-N-(2-oxo-2-(1,4,7,10-tetraazacyclododecan-1-yl)ethyl)tetrahydrofuran-2-carboxamide zinc (II) trifluromethanesulfonate [Compound 1.1.Zn]
- IC50 [1]: 10.5 µM
- IC50 (Table 5, n = 3): 10.5 µM

Molecule: (2S,3S,4R,5R)-5-(6-amino-9H-purin-9-yl)-3,4-dihydroxy-N-(2-oxo-2-(1,4,7,10-tetraazacyclododecan-1-yl)ethyl)tetrahydrofuran-2-carboxamide, copper(II) trifluromethanesulfonate [Compound 1.1.Cu]
- IC50 [2]: > 100 µM

Molecule: (2S,3S,4R,5R)-5-(6-amino-9H-purin-9-yl)-3,4-dihydroxy-N-(2-oxo-2-(1,4,8,11-tetraazacyclotetradecan-1-yl)ethyl)tetrahydrofuran-2-carboxamide, copper(II) trifluoromethanesulfonate [Compound 1.1.Cy.Cu]
- IC50 (Table 4, n = 3): 45.4 µM

Molecule: (2S,3S,4R,5R)-5-(6-amino-9H-purin-9-yl)-3,4-dihydroxy-N-(3-oxo-3-(1,4,7,10-tetraazacyclododecan-1-yl)propyl)tetrahydrofuran-2-carboxamide, copper(II) trifluromethanesulfonate [Compound 1.2.Cu]
- IC50 [2]: 39.6 µM

Molecule: (2S,3S,4R,5R)-5-(6-amino-9H-purin-9-yl)-3,4-dihydroxy-N-(4-oxo-4-(1,4,7,10-tetraazacyclododecan-1-yl)butyl)tetrahydrofuran-2-carboxamide, copper(II) trifluromethanesulfonate [Compound 1.3.Cu]
- IC50 [2]: > 100 µM

Molecule: (2S,3S,4R,5R)-5-(6-amino-9H-purin-9-yl)-3,4-dihydroxy-N-(5-oxo-5-(1,4,7,10-tetraazacyclododecan-1-yl)pentyl)tetrahydrofuran-2-carboxamide, copper(II) trifluoromethanesulfonate [Compound 1.4.Cu]
- IC50 [2]: 38.8 µM

Molecule: (2S,3S,4R,5R)—N-(2-(1,4,7,10-tetraazacyclododecan-1-yl)ethyl)-5-(6-amino-9H-purin-9-yl)-3,4-dihydroxytetrahydrofuran-2-carboxamide, copper(II) trifluromethanesulfonate [Compound 1.1.A.Cu]
- IC50 (Table 5, n = 3): 21.1 µM

Molecule: (2S,3S,4R,5R)—N-(6-(1,4,7,10-tetraazacyclododecan-1-yl)hexyl)-5-(6-amino-9H-purin-9-yl)-3,4-dihydroxytetrahydrofuran-2-carboxamide, copper(II) trifluromethanesulfonate [Compound 1.5.A.Cu]
- IC50 (Table 5, n = 3): > 100 µM
